In brackets after ≈: the same amount, converted by molar mass.
Experiments:
Staphylococcus aureus [1] = assay: Antimicrobial activity against methicillin-sensitive Staphylococcus aureus; assay type: functional
Tyrosinase = Tyrosinase (Agaricus bisporus, UniProt O42713); assay: Inhibition of mushroom tyrosinase
Bacillus subtilis = assay: Antimicrobial activity against Bacillus subtilis; assay type: functional
Klebsiella pneumoniae = assay: Antimicrobial activity against Klebsiella pneumoniae; assay type: functional
Escherichia coli = assay: Antimicrobial activity against Escherichia coli; assay type: functional
[2] = Cytotoxicity against human Hep3B cells assessed as cell viability after 24 hrs by MTT assay; assay type: cell-based, Hep 3B2
RAW264.7 [3] = assay: Antiinflammatory activity against mouse RAW264.7 cells assessed as reduction of IFNgamma-induced NO production; assay type: functional, cell-based
Micrococcus luteus = assay: Antimicrobial activity against Micrococcus luteus; assay type: functional
Staphylococcus aureus [4] = assay: Antimicrobial activity against methicillin-resistant Staphylococcus aureus; assay type: functional
RAW264.7 [5] = assay: Antiinflammatory activity against mouse RAW264.7 cells assessed as reduction of LPS-induced NO production; assay type: functional, cell-based
Pseudomonas aeruginosa = assay: Antimicrobial activity against Pseudomonas aeruginosa; assay type: functional
[6] = Cytotoxicity against human BGC823 cells after 96 hrs by MTT assay; assay type: functional, cell-based; settings: BGC-823, 96 h
A2780 = assay: Cytotoxicity against human A2780 cells after 96 hrs by MTT assay; assay type: functional, cell-based; settings: A2780, 96 h
[7] = Cytotoxicity against human Bel7402 cells after 96 hrs by MTT assay; assay type: functional, cell-based; settings: Bel-7402, 96 h
A549 = assay: Cytotoxicity against human A549 cells after 96 hrs by MTT assay; assay type: functional, cell-based; settings: A549, 96 h
[8] = Cytotoxicity against human HCT8 cells after 96 hrs by MTT assay; assay type: functional, cell-based; settings: HCT-8, 96 h
[9] = Inhibition of alpha-glucosidase (unknown origin); design: species or system Homo sapiens
[10] = Antifungal activity against Stigmina mori; assay type: functional
[11] = Antifungal activity against Fusarium solani f. sp. mori; assay type: functional
[12] = Antifungal activity against Cochliobolus miyabeanus; assay type: functional; settings: Bipolaris oryzae
[13] = Antifungal activity against Diaporthe nomurai; assay type: functional
[14] = Antifungal activity against Fusarium roseum; assay type: functional
[15] = Antifungal activity against Fusarium lateritium f. sp. mori; assay type: functional
Rosellinia necatrix = assay: Antifungal activity against Rosellinia necatrix; assay type: functional
[16] = Antioxidant activity assessed as DPPH radical scavenging activity measured as discoloration at 100 ug/ml; assay type: physicochemical
[17] = Antioxidant activity assessed as DPPH radical scavenging activity; assay type: physicochemical
[18] = Antioxidant activity assessed as DPPH radical scavenging activity measured as discoloration at 12.5 ug/ml; assay type: physicochemical
[19] = Antioxidant activity assessed as DPPH radical scavenging activity measured as discoloration at 25 ug/ml; assay type: physicochemical
[20] = Antioxidant activity assessed as DPPH radical scavenging activity measured as discoloration at 50 ug/ml; assay type: physicochemical

Tyrosinase, sequence (O42713 whole entry): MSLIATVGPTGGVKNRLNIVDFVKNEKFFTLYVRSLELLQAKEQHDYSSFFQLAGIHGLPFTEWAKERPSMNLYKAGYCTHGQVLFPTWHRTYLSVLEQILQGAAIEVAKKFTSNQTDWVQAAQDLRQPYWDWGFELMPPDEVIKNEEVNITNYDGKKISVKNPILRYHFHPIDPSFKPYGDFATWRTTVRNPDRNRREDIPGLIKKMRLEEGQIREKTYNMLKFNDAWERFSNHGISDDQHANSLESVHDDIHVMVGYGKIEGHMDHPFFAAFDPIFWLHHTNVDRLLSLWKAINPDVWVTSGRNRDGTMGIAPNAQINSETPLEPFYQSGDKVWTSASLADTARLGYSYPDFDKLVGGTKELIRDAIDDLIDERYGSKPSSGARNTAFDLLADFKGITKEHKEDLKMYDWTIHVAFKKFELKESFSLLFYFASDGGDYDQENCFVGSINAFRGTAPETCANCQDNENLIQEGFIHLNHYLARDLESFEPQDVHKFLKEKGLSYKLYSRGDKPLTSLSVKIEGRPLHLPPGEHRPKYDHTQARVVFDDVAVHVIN

Row | MIC (Klebsiella pneumoniae) | MIC (Escherichia coli) | MIC (Pseudomonas aeruginosa) | MIC [10] | MIC [11] | MIC [12] | MIC [13] | MIC [14] | MIC [15] | MIC (Rosellinia necatrix) | Structure (SMILES) | IC50 (RAW264.7 [3]) | IC50 (RAW264.7 [5]) | further results
1 | > 100 µg/mL | > 100 µg/mL | > 100 µg/mL |  |  |  |  |  |  |  | Oc1cc(O)cc(-c2cc3cc4ccoc4cc3o2)c1 |  |  | IC50 [6]: 3.8 µg/mL (≈ 14.3 µM); IC50 (A2780): 5.9 µg/mL (≈ 22.2 µM); IC50 [7]: 5.9 µg/mL (≈ 22.2 µM); IC50 (A549): 7.3 µg/mL (≈ 27.4 µM); IC50 [8]: 6.4 µg/mL (≈ 24 µM)
2 | > 100 µg/mL | > 100 µg/mL | > 100 µg/mL |  |  |  |  |  |  |  | COc1cc(O)cc(-c2cc3cc(O)c(OC)cc3o2)c1 |  |  | 
3 | > 100 µg/mL | > 100 µg/mL | > 100 µg/mL | 56 µg/mL (≈ 182 µM) | 112 µg/mL (≈ 363 µM) | 14 µg/mL (≈ 45.4 µM) | 7 µg/mL (≈ 22.7 µM) | 7 µg/mL (≈ 22.7 µM) | 28 µg/mL (≈ 90.8 µM) | < 3.5 µg/mL | CC1(C)C=Cc2c(O)cc(-c3cc4ccc(O)cc4o3)cc2O1 [MORACIN D] | 18 µM | 18 µM | IC50 [9]: 2540 nM
4 | > 100 µg/mL | > 100 µg/mL | > 100 µg/mL | 50 µg/mL (≈ 175 µM) | 1000 µg/mL (≈ 3490 µM) | 100 µg/mL (≈ 349 µM) | 1000 µg/mL (≈ 3490 µM) | 50 µg/mL (≈ 175 µM) | 200 µg/mL (≈ 699 µM) | 50 µg/mL (≈ 175 µM) | COc1cc2cc(-c3cc(O)cc(O)c3)oc2cc1OC |  |  | 
5 | > 100 µg/mL | > 100 µg/mL | > 100 µg/mL |  |  |  |  |  |  |  | CC(C)=CCc1c(O)ccc2cc(-c3cc(O)cc(O)c3)oc12 |  |  | Activity [16]: 69.72%; EC50 [17]: 5.06 µg/mL (≈ 16.3 µM); Activity [18]: 55%; Activity [19]: 62.25%; Activity [20]: 67.87%

Row | Structure (SMILES) | MIC (Klebsiella pneumoniae) | MIC (Escherichia coli) | MIC (Pseudomonas aeruginosa) | MIC [10] | MIC [11] | MIC [12] | MIC [13] | MIC [14] | MIC [15] | MIC (Rosellinia necatrix) | IC50 (RAW264.7 [3]) | IC50 (RAW264.7 [5]) | further results
6 | CC1(C)Oc2cc3oc(-c4cc(O)cc(O)c4)cc3cc2CC1O (stereo not drawn) [(+/-)-MORACIN P] | > 100 µg/mL | > 100 µg/mL | > 100 µg/mL |  |  |  |  |  |  |  | 19.3 µM | 19.3 µM | MIC (Staphylococcus aureus [1]): 50 µg/mL (≈ 153 µM); IC50 (Tyrosinase): 2900 nM; MIC (Bacillus subtilis): 100 µg/mL (≈ 306 µM); IC50 [2]: > 30 µM; MIC (Micrococcus luteus): 100 µg/mL (≈ 306 µM); MIC (Staphylococcus aureus [4]): 100 µg/mL (≈ 306 µM)
